What was measured:
Btk kinase = Btk kinase (Homo sapiens (Human), UniProt Q06187); assay: Btk kinase enzymatic activity assay (HTRF); type: biochemical; details: Table 1; read-out: Btk IC50
Experimental: The half inhibition concentrations (IC50 values) of the compounds disclosed herein on Btk were determined at both enzymatic level and cellular level: the ability of the compounds to inhibit the activity of Btk kinase was determined in an enzymtic activity assay, and the inhibitory effect of the compounds on BCR-induced calcium flux in cells was determined in a cellular function assay.
(§1) The compounds were gradiently diluted 3 folds starting from 1 mM with 100% DMSO (totally 11 concentrations). 4 μL of each sample with a different concentration was added into 96 μL of reaction buffer (50 mM HEPES, pH 7.4, 10 mM MgCl2, 1 mM EGTA, 0.01% Tween-20, 0.005% BAS, 2 mM DTT). […] The mixture was centrifuged to mix well, followed by adding 2.5 μL of a mixture of ATP (final concentration designated as Km) and TK petide (HTRF® KinEASE™-TK, Cisbio) to initiate the reaction (total reaction volume being 10 μL). […] The enzyme activity for each compound was determined at 11 concentrations, and IC50 values were obtained by GraFit Software 6.0 (Erithacus Software).

ITK kinase = ITK kinase (Homo sapiens (Human), UniProt Q08881); assay: ITK kinase enzymatic assay (same HTRF method as BTK); type: biochemical; details: Table 1; read-out: Itk IC50
ITK kinase, sequence (Q08881 whole entry): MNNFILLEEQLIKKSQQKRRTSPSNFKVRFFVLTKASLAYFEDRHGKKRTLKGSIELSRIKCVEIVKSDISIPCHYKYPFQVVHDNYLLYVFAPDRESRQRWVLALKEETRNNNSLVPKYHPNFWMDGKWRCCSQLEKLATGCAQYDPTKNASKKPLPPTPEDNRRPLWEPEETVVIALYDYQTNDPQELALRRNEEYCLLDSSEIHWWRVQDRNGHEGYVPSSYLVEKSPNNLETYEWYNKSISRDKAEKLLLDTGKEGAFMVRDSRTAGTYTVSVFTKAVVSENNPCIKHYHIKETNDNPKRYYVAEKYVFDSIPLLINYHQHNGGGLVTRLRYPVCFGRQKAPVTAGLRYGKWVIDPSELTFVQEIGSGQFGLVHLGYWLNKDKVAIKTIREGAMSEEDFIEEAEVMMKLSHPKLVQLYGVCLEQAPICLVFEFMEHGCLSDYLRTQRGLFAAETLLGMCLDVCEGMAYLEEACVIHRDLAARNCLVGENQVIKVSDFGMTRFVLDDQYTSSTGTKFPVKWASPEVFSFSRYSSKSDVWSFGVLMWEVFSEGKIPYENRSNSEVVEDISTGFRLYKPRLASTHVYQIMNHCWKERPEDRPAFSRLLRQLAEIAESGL
Experimental: as §1
In vitro activity in inhibiting ITK kinase was determined similar to that in respect of BTK kinase.

Btk kinase, sequence (Q06187 whole entry): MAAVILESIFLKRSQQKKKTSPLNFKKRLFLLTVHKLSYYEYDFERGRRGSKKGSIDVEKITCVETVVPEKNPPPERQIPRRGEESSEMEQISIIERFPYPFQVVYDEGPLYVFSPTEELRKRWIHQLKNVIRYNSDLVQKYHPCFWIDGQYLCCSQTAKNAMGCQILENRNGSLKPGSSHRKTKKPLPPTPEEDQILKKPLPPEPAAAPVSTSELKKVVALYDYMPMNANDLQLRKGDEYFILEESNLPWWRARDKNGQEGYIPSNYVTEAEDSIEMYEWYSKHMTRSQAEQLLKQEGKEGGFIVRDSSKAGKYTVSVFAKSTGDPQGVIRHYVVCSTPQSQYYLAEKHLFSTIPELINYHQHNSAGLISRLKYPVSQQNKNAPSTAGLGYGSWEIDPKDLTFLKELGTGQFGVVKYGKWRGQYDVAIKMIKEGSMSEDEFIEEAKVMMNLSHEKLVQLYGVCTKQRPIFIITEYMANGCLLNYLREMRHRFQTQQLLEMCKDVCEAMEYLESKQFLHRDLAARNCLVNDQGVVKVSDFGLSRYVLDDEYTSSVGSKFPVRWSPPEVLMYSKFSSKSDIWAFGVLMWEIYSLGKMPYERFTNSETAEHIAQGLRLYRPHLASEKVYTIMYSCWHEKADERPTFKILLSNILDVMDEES

| Compound | IC50 (Btk kinase) [nM] | IC50 (ITK kinase) [nM] |
| --- | --- | --- |
| NC(=O)c1c(-c2ccc(Oc3ccccc3)cc2)nn([C@@H]2CCN(C(=O)/C=C/CN3CCCCC3)C2)c1N [Example 5, (R,E)-5-amino-3-(4-phenoxyphenyl)-1-(1-(4-(piperidin-1-yl)but-2-enoyl)pyrrolidin-3-yl)-1H-pyrazole-4-carboxamide] | < 100 | > 1000 |
| NC(=O)c1c(-c2ccc(Oc3ccccc3)cc2)nn([C@@H]2CCN(C(=O)/C=C/CBr)C2)c1N [Example 12, (R,E)-5-amino-1-(1-(4-bromobut-2-enoyl)pyrrolidin-3-yl)-3-(4-phenoxyphenyl)-1H-pyrazole-4-carboxamide] | < 100 | > 1000 |
| C#CC(=O)N1CC[C@@H](n2nc(-c3ccc(Oc4ccccc4)cc3)c(C(N)=O)c2N)C1 [Example 17, (R)-5-amino-3-(4-phenoxyphenyl)-1-(1-propioloylpyrrolidin-3-yl)-1H-pyrazole-4-carboxamide] | < 100 | < 100 |
| NC(=O)c1c(-c2ccc(Oc3ccccc3)cc2)nn([C@@H]2CCN(C/C=C/C(=O)O)C2)c1N [Example 10, (R,E)-4-(3-(5-amino-4-carbamoyl-3-(4-phenoxyphenyl)-1H-pyrazol-1-yl)pyrrolidin-1-yl)but-2-enoic Acid] | < 100 | > 1000 |
| CS(=O)(=O)NC/C=C/C(=O)N1CC[C@@H](n2nc(-c3ccc(Oc4ccccc4)cc3)c(C(N)=O)c2N)C1 [Example 14, (R,E)-5-amino-1-(1-(4-(methylsulfonamido)but-2-enoyl)pyrrolidin-3-yl)-3-(4-phenoxyphenyl)-1H-pyrazole-4-carboxamide] | < 100 | > 1000 |
| C=CS(=O)(=O)N1CC[C@@H](n2nc(-c3ccc(Oc4ccccc4)cc3)c(C(N)=O)c2N)C1 [Example 2, (R)-5-amino-3-(4-phenoxyphenyl)-1-(1-(vinylsulfonyl)pyrrolidin-3-yl)-1H-pyrazole-4-carboxamide] | < 100 | < 100 |
| C=CS(=O)(=O)N1CCC[C@@H](n2nc(-c3ccc(Oc4ccccc4)cc3)c(C(N)=O)c2N)C1 [Example 1, (R)-5-amino-3-(4-phenoxyphenyl)-1-(1-(vinylsulfonyl)piperidin-3-yl)-1H-pyrazole-4-carboxamide] | < 100 | < 100 |
| NC(=O)c1c(-c2ccc(Oc3ccccc3)cc2)nn([C@@H]2CCN(C(=O)/C=C/CN3CCOCC3)C2)c1N [Example 4, (R,E)-5-amino-1-(1-(4-morpholinobut-2-enoyl)pyrrolidin-3-yl)-3-(4-phenoxyphenyl)-1H-pyrazole-4-carboxamide] | < 100 | > 1000 |
| CC(=O)OC/C=C/C(=O)N1CC[C@@H](n2nc(-c3ccc(Oc4ccccc4)cc3)c(C(N)=O)c2N)C1 [Example 13, (R,E)-4-(3-(5-amino-4-carbamoyl-3-(4-phenoxyphenyl)-1H-pyrazol-1-yl)pyrrolidin-1-yl)-4-oxobut-2-en-1-yl acetate] | < 100 | > 1000 |
| NC(=O)c1c(-c2ccc(Oc3ccccc3)cc2)nn([C@@H]2CCN(C(=O)/C=C/CN3CCCC3)C2)c1N [Example 6, (R,E)-5-amino-3-(4-phenoxyphenyl)-1-(1-(4-(pyrrolidin-1-yl)but-2-enoyl)pyrrolidin-3-yl)-1H-pyrazole-4-carboxamide] | < 100 | > 1000 |
| CN(C)C/C=C/C(=O)N1CC[C@@H](n2nc(-c3ccc(Oc4ccccc4)cc3)c(C(N)=O)c2N)C1 [Example 3, (R,E)-5-amino-1-(1-(4-(dimethylamino)but-2-enoyl)pyrrolidin-3-yl)-3-(4-phenoxyphenyl)-1H-pyrazole-4-carboxamide] | < 100 | > 1000 |
| CC(C)/C=C/C(=O)N1CC[C@@H](n2nc(-c3ccc(Oc4ccccc4)cc3)c(C(N)=O)c2N)C1 [Example 8, (R,E)-5-amino-1-(1-(4-methylpent-2-enoyl)pyrrolidin-3-yl)-3-(4-phenoxyphenyl)-1H-pyrazole-4-carboxamide] | < 100 | > 1000 |

From US10112922B2, “Inhibitor of bruton's tyrosine kinase” (Centaurus BioPharma Co., Ltd., priority 2014, dated 2018)
